Patent US10286032B2, “Pro-angiogenic fragments of prominin-1 and uses thereof” (Children's Medical Center Corporation, priority 2010, dated 2019)

How the values were obtained:
[1] = system: endothelial cells; assay: I125-VEGF binding to endothelial cells in the presence of peptide; type: cell-based
Description: (§1) 10000 cells were incubated in binding buffer containing 20 mM Hepes, 0.1% BSA and I^125-VEGF (12 ng/ml) for 3 h on ice.
(§2) In order to characterize the effect of the peptides on VEGF binding to endothelial and melanoma cells, the cells were incubated with various peptides (720 μg/ml) in the presence of I^125-VEGF (12 ng/ml) (FIG. 2). Peptide #237 increased VEGF binding to endothelial as well to melanoma cells. 10000 cells were incubated in binding buffer containing 20 mM Hepes, 0.1% BSA and I^125-VEGF (12 ng/ml) for 3 h on ice. Following 3 washings, the radioactive levels were determined by gamma counter. An increase of more than 25 times in I^125-VEGF binding was observed when peptide #237 was added to both kinds of cells. The other prominin-1 peptides examined had no effect on VEGF binding to endothelial cells.
Each of these peptides were tested for VEGF binding to endothelial cells and compared to peptide #237 at varying dilutions. The results are indicated herein in FIG. 7.
The inventors also investigated which amino acid residues in peptide #237 are important for the various angiogenic and VEGF related binding activity described herein. To achieve this, the inventors singly changed each of the 12 amino acid residues in peptide #237 to alanine and performed experiments examining the effect of the alanine substitution at various positions on endothelial cell binding to VEGF. A total of 12 alanine substituted peptides were made and tested: Ala-1, Ala-2, Ala-3, Ala-4, Ala-5, Ala-6, Ala-7, Ala-8, Ala-9, Ala-10, Ala-11, Ala-12, (SEQ. ID. NOS. 38-41, 3, 11, 42-47) wherein the number indicate the position where the alanine substitution occurred. In addition, a “flip #237” peptide having the sequence AAVVTTTQRQVRD (SEQ. ID. NO. 22) was also made and studied.

[2] = system: ear wound; assay: ear punch wound healing model; type: in vivo, mouse; conditions: for wound closure versus control (peptide #237): intraperitoneal treatment, C57BL mouse
[3] = system: ischemic hind limb blood flow; assay: hind limb ischemia model, local injection or pump (Example 11); type: in vivo, mouse; conditions: after 48 h
Description: FIG. 10A are laser doppler images showing the effects of direct injection of either saline or peptide #237 to the ischemic site (800 μg) in a mouse hind limb ischemia model. Mice were ligated in both of their femoral arteries to simulate hind limb ischemia. The blood flow in mice was analyzed by machine for each mouse before and immediately after the procedure to evaluate if the femoral was ligated properly. (Note that amino acid 12 of SEQ. ID. NO: 1 is alanine; this amino acid was substituted with […] in the Ala-12 substitution variant.)
FIG. 10B are laser doppler images showing the effects of injection by pumps of either the saline or peptide #237 to the ischemic site (800 μg) in a mouse hind limb ischemia model. Just the left femoral artery was ligated to simulate hind limb ischemia. Mice from group B were treated systemically by pumps that were implanted to the mouse's back one day prior to the procedure. […] The blood flow was analyzed by machine for each mouse before and immediately after the procedure to evaluate if the femoral was ligated properly. […]
The angiogenic effects of peptide #237 were investigated using the mouse hind limb ischemia model. […] The blood flow was analyzed by Laser Doppler perfusion imagery machine for each mouse before and immediately after the procedure to evaluate if the femoral was ligated properly. […]

[4] = system: endothelial cells; assay: Matrigel assay of endothelial cell migration in vivo (FACS of matrigel liberated cells); parameters: species or system C57bl mice; conditions: day 6; for endothelial cells among matrigel liberated cells (FACS, CD31): Matrigel with 500 ng VEGF, with or without 180 μg #237
Description: On day 6, animals were sacrificed and fluorescence-activated cell sorting (FACS) analysis was used for determination of the matrigel liberated cells. In order to distinguish the endothelial cells from hematopoietic cells, the cells were incubated with two antibodies CD31-PE and CD45-APC which are specific to endothelial cells and hematopoietic cells respectively.

[5] = system: cornea neovascularization; assay: corneal micropocket assay with VEGF pellet; type: in vivo, mouse; conditions: pellet 160 ng VEGF 165 + 1.3 ug #237; 5 days
Description: Vigorous vessel in-growth from the limbus at 5 days was recorded as a positive response.
In order to evaluate the modulating effect of peptide #237 on the angiogenesis process, a corneal micropocket assay was performed. Two kinds of pellets were created, both containing 160 ng carrier-free recombinant human VEGF 165 (R&D Systems, Minneapolis, Minn.), one of which contains 1.3 ug of #237 peptide. The pellets were implanted into micropockets created in the cornea of two groups of anesthetized mice (n=4). Through the use of standardized slow-release pellets, a predictable angiogenic response is generated over the course of 5 days and then quantified. The area of neovascularization was calculated as vessel area, which is calculated as the product of vessel length measured from the limbus and clock hours around the cornea, using the following equation: vessel area (mm^2)=[clock hours×vessel length (mm)×0.2 mm]. […] The in vivo experiment confirms that the peptide stimulates cell proliferation, and is therefore a good candidate to induce angiogenesis.

[6] = system: ear wound neovascularization; assay: ear wound neovascularization model; type: in vivo, nude mouse; conditions: matrigel containing 180 μg peptide daily for 5 days; 2.25 mm punch; versus plain matrigel
Description: Microvascular in-growth into damaged tissue is an essential component of the normal healing process. In fact, wound therapy is often aimed at promoting neovascularization. The model consists of wounding the dorsal aspect of the ear of a nude mouse. A circular punch was used to create a standardized wound on a nude mouse ear. Constant diameter of wound is given by the size of the punch (2.25 mm), and the ears were treated daily with plain matrigel (FIG. 6A) or matrigel containing peptide #237 (180 μg) (FIG. 6B) for 5 days. […] In order to evaluate the wound neovascularization, the mice were inoculated by dextran-FITC which specifically labeled the endothelial cells, immediately after anesthetizing them.

[7] = system: B16-F10 melanoma cells; assay: I125-VEGF binding to melanoma cells in the presence of peptide; type: cell-based; conditions: peptide 720 μg/ml, I125-VEGF 12 ng/ml, 3 h on ice
Description: as §1, §2

[8] = system: ischemic hind limb blood flow; assay: hind limb ischemia model, intraperitoneal administration (Example 12); type: in vivo, mouse; conditions: for limb perfusion: intraperitoneally immediately following femoral artery occlusion, within three to six days
Description: Mice were ligated in one of their femoral arteries (the […]) to simulate hind limb ischemia. The blood flow was analyzed by machine for each mouse before and immediately after the procedure to evaluate if the femoral was ligated properly. Blood flow was compared with the non-operated leg by a laser Doppler imager. […] The ischemic limb is seen as the limb on left side in the laser Doppler images.
Representative evaluation of the ischemic (left side of each image) and non-ischemic (right side of each image) hind limbs, immediately after, and on days 4 and 14 after surgery. In FIG. 11, the white areas indicate normal perfusion with normal blood circulation and black areas indicate no blood flow in the ischemic left hind limb. […] Dark shaded areas within the white areas located at the distal ends of the limbs indicate […].
The blood flow of the ischemic hind limb is expressed as the ratio between the perfusion of the ischemic limb and the uninjured limb in FIG. 12.

Q: How did the “VEGF binding to endothelial cells over control levels (absence of any peptide)” value [1] turn out when DAVQRQTTTVVA [Ala-2] was run?
A: The value was “promote VEGF binding to endothelial cells over control levels”.

Q: With DRAQRQTTTVVA [Ala-3] as the substance, how does the “VEGF binding to endothelial cells over control levels (absence of any peptide)” value [1] read?
A: Its value is “promote VEGF binding to endothelial cells over control levels”.

Q: How did the “VEGF binding to endothelial cells over control levels (absence of any peptide)” value [1] turn out when DRVARQTTTVVA [Ala-4] was run?
A: The value was “promote VEGF binding to endothelial cells over control levels”.

Q: Which results are given for DRVQAQTTTVVA [Ala-5]?
A: VEGF binding to endothelial cells over control levels (absence of any peptide) [1]: promote VEGF binding to endothelial cells over control levels; ability of endothelial cells to bind VEGF compared to original #237 ([1]; alanine substitution screen): more than twice

Q: Which results are given for DRVQMQTTTVVA [#237-M]?
A: VEGF binding to endothelial cells over control levels (absence of any peptide) [1]: promote VEGF binding to endothelial cells over control levels; wound closure versus control (peptide #237) [2]: significantly more wound closure

Q: With DRVQQQTTTVVA [#237-Q] as the substance, how does the “VEGF binding to endothelial cells over control levels (absence of any peptide)” value [1] read?
A: The value was “promote VEGF binding to endothelial cells over control levels”.

Q: And the “wound closure versus control (peptide #237)” value [2]?
A: The value was “significantly more wound closure”.

Q: With DRVQRATTTVVA [Ala-6] as the substance, how does the “VEGF binding to endothelial cells over control levels (absence of any peptide)” value [1] read?
A: Its value is “promote VEGF binding to endothelial cells over control levels”.

Q: How did the “VEGF binding to endothelial cells over control levels (absence of any peptide)” value [1] turn out when DRVQRQATTVVA [Ala-7] was run?
A: The value was “promote VEGF binding to endothelial cells over control levels”.

Q: What does the source list for “DRVQRQTTTVVA (listed as Homo sapiens) [#237]”?
A: recovery of the blood flow in the ischemic site ([3]; local injection to the ischemic site (800 ug)): complete recovery of the blood flow; recovery of the blood flow in the ischemic site ([3]; slow release via pump 0.5 ug/hour): complete recovery of the blood flow; VEGF binding to endothelial cells over control levels (absence of any peptide) [1]: promote VEGF binding to endothelial cells over control levels; increase in I125-VEGF binding ([1]; endothelial cells, peptide 720 μg/ml, I125-VEGF 12 ng/ml, 3 h on ice): more than 25 times; wound area versus untreated mice ([2]; MATRIGEL containing peptide daily for 14 days, day 14, 1 mm wound): significantly smaller; endothelial cells relative to VEGF alone ([4]; 180 ug #237 added to the VEGF): six times more; endothelial cells among matrigel liberated cells (FACS, CD31) [4]: 0.42%; increase in vessel density versus pellet without peptide [5]: 53%; neovascularization around the ear wound site [6]: significantly increased the neovascularization; increase in I125-VEGF binding [7]: more than 25 times; blood flow recovery compared to saline treated mice (laser Doppler images) ([8]; days 4 and 14 after surgery): increased blood flow recovery; limb perfusion [8]: significantly improves limb perfusion

Q: Which “VEGF binding to endothelial cells over control levels (absence of any peptide)” value [1] does the source give for “DRVQRQTTTVVG [Ala-12, glycine substitution at position 12, which is naturally alanine]” here?
A: Its value is “promote VEGF binding to endothelial cells over control levels”.

Q: For DRVQVQTTTVVA [#237-V], which “VEGF binding to endothelial cells over control levels (absence of any peptide)” value [1] is on record?
A: Its value is “promote VEGF binding to endothelial cells over control levels”.

Q: And the “wound closure versus control (peptide #237)” value [2]?
A: The value was “significantly more wound closure”.

Q: What about the limb perfusion [8] of the same substance?
A: Its limb perfusion is “significantly improves limb perfusion”.

Q: How did the “VEGF binding to endothelial cells over control levels (absence of any peptide)” value [1] turn out when RVQRQTTTVVAG was run?
A: Its value is “promote VEGF binding to endothelial cells over control levels”.

Q: VEGF was tested. Which “endothelial cells among matrigel liberated cells (FACS, CD31)” value [4] did it give?
A: The value was 0.07%.

Q: VQRQTTTVVAGI was tested. Which “VEGF binding to endothelial cells over control levels (absence of any peptide)” value [1] did it give?
A: Its value is “promote VEGF binding to endothelial cells over control levels”.
